Data: patent US20110173707A1 (priority 2008, published 2011)
Converted amounts (≈) assume the structure as drawn. Starred links: 1 amine or outer side, 2 acyl side, 3 side chain; linkers in the order of their positions; H or OH if unused. Positions of bridges follow the written chain, without caps; N, C: chain ends. Non-standard residues stand in square brackets, D forms with d. Residues, ends and D or L forms follow the SMILES beside them. X1 = CC1CC(C2=NC(C(=O)[*:2])CS2)N1[*:1]; NMeV = CN[CH](C(=O)O)C(C)C; X2 = O=C(C(O)CO[*:2])[*:1]; Pip = O=C(O)[CH]1CCCCN1; Dhb = C/C=C(\N)C(=O)O

Legend:
[1] = system: type I IFN response (IFN-β induced Mx2-driven luciferase activity); assay: Type I IFN reporter cell assay (Mx2-driven Firefly luciferase, NIH3T3 Mx2-Luc2); format: cell-based, murine
Protocol: In FIG. 6A the type I IFN reporter cells were pretreated with different concentrations of Vioprolide A (0, 5, 10, 30, 50 or 100 ng/ml). After pre-treatment for two hours cells were stimulated with IFN-β (500 U/ml) in the continuous presence of the indicated Vioprolide concentrations. In FIG. 6B type I IFN reporter cells were pretreated with IFN-β ([…]). After four hours cells were additionally stimulated with different concentrations of Vioprolide A (0, 5, 10, 30, 50 or 100 ng/ml). Untreated cells were used as control (Crtl). Luciferase activity was measured after 24 hours and relative luminescent units (RLU) were calculated to one μg of protein detected by Bradford assay.
For measuring type I IFNs BAC-based reporter constructs have been used. BACs harbouring the cDNA of Firefly luciferase 2 (luc2) under control of the Mx2 promoter were engineered, NIH3T3 Mx2-Luc2. The change from Luc+ (pGL3 basic, Promega) used in the before mentioned reporter constructs to the next generation luciferase (pGL4.10, Promega) was performed, as Luc2 theoretically promised to achieve higher signal intensities and therefore might also be more practicable for further in vivo imaging experiments. This newly generated BAC was electroporated into the murine fibroblast cell line NIH/3T3.
After overnight incubation luciferase activity was determined and calculated according to protein levels to scale with the antiproliferative effects of Vioprolide. […] The median inhibitory concentration (IC50), which reduces IFN-induced responses by 50%, was calculated to be 10 ng/ml of Vioprolide A.
In FIG. 6A type I IFN reporter cells, NIH3T3 Mx2-Luc2 were pretreated with different concentrations of Vioprolide A (−, 5, 10, 30, 50 or 100 ng/ml). After pre-treatment for two hours cells were stimulated with IFN-β (500 U/ml) in the continuous presence of the indicated Vioprolide concentrations. In FIG. […] type I IFN reporter cells were pretreated with IFN-β (500 U/ml). After four hours cells were additionally stimulated with different concentrations of Vioprolide A (−, 5, 10, 30, 50 or 100 ng/ml). Untreated cells were used as control (CM). Luciferase activity was measured after 24 hours and relative luminescent units (RLU) were calculated to one μg of protein detected by Bradford assay.
Next, the effect of Vioprolide A on previously activated type I IFN signalling was addressed. This was performed to exclude a direct inhibitory interaction of this natural compound with IFN molecules or their cognate receptors type I IFN reporter cells were therefore stimulated with IFN-β four hours prior to treatment with different Vioprolide A concentrations. After overnight incubation cells were harvested and luciferase activity was assayed. […] A first significant reduction of luciferase activity (for p<0.05) could be visualized with 30 ng/ml Vioprolide A (FIG. 6B). The IC50 was identified to 20 ng/ml.

[2] = system: type I IFN responses (IFN-inducible Mx2-promoter, tdTomato); assay: Mx2Tom reporter cells, tdTomato expression by flow cytometry; format: cell-based; details: IFN-β plus different concentrations, overnight incubation
Protocol: This allowed assessment of the Vioprolide A effect on the IFN system on a single cell level. Thus, cells were stimulated with IFN-β as wells as different concentrations of Vioprolide A and expression of tdTomato was analyzed after overnight incubation using flow cytometry.

[3] = system: type II IFN response (IFN-γ, Gbp2 promoter); assay: Type II IFN reporter cell assay (Gbp2-driven Renilla luciferase, NIH3T3 Gbp2-RLuc); format: cell-based, murine; details: 500 U/ml IFN-γ, Vioprolide A one hour later, all concentrations tested (50, 100, 200 ng/ml); not related to protein
Protocol: IFN-γ reporter NIH/3T3 cells harbouring the recombinant BAC Gbp2RLuc were seeded on 96-well-plates and treated with IFN-γ ([…]) or left untreated (“−”). After one hour cells were exposed to different concentrations of Vioprolide A (−, 50, 100 or 200 ng/ml) and incubated overnight. Gbp2-driven Renilla luciferase expression was determined by luciferase assay. Results are expressed as fold induction of basal expression (n=3).
In addition, Vioprolide A might also modulate type II IFN responses. […] Hereby, expression of Renilla luciferase is driven by the type II IFN responsive promoter of the Gbp2 gene obtained using a BAC containing the GBP2 gene locus and following the method described above. In this experiment, reporter cells, NIH3T3 Gbp2-RLuc were seeded on […], stimulated with 500 U/ml IFN-γ and one hour later incubated with different concentrations of Vioprolide A. Afterwards the IFN response was analysed by quantifying Renilla luciferase activity. Since this assay was performed on a microtiter format, quantification of protein amounts by former used BCA as well as Bradford assay was impossible. […] Thus, evidence for a negative influence of Vioprolide A on both type I and type II IFN responses was provided.

[4] = system: type I interferon response (Mx2-promoter controlled luciferase); assay: Bioluminescent imaging of type I IFN reporter mice (BAC Mx2Luc2); format: in vivo; details: 20 μg i.v., IFN-β i.v. after 1 h
Protocol: In FIG. 8 the inhibitory response of Vioprolide A on the type I interferon response is shown. In FIG. 8A a female type I IFN reporter mice, which contain the IFN-responsive BAC Mx2Luc2, were i.v. treated with 20 μg of Vioprolide A (in 100% EtOH). First image was taken immediately after Vioprolide A treatment. After 1 h mice were i.v. injected with 5.000 U/ml IFN-β (PBL). Three hours after IFN-treatment second series of images were taken. For control one animal was only treated with Vioprolide A or with IFN, respectively. Bioluminescent images were obtained using the IVIS200 System (Xenogen). […] Rainbow scales indicate number of photons measured per second×cm2×sr.
For the following in vivo experiment 20 μg of Vioprolide A were employed. This amount was calculated according to a publication appointing the lethal dose of this compound to be 3 mg/kg and moreover to concentrations used for anti-tumour studies Thus, type I IFN reporter mice were intravenously injected with Vioprolide A and subjected for bioluminescent imaging. After one hour mice were additionally treated with IFN-β and responses were assessed after a three-hour incubation time. […]
In FIG. 8A female type I IFN reporter mice, which contain the IFN-responsive BAC Mx2Luc2, were i.v. treated with 20 μg of Vioprolide A (in 100% EtOH). […] Rainbow scales indicate number of photons measured per second×cm2×sr.

[5] = system: vesicular stomatitis virus (VSV); format: cell-based
[6] = according to a publication; cited from earlier work

SMILES: C/C=C1\NC(=O)C2CSC(=N2)C2CC(C)N2C(=O)C(CC(C)C)NC(=O)C(C)NC(=O)C(O)COC(=O)C(C(C)C)N(C)C(=O)C(C(C)O)NC(=O)C2CCCCN2C1=O (stereo not shown) [Vioprolide A] (AL[X1][Dhb][Pip]T[NMeV]; linker N-C via X2; configuration not given here)
- reporter expression ([1]; 100 ng/ml, IFN-β four hours prior to treatment): significant reduction of reporter expression
- Mx2-driven luciferase activity at strongest inhibition ([1]; 100 ng/ml, pre-treatment 2 h before IFN-β, FIG. 6A): dramatic decrease of Mx2-driven luciferase activity down to background levels
- IC50 on previously activated type I IFN signalling ([1]; IFN-β (500 U/ml) four hours prior to Vioprolide A, FIG. 6B): 0.02 mg/L (≈ 0.0232 µM)
- concentration giving first significant reduction of luciferase activity (p<0.05) ([1]; IFN-β four hours prior to Vioprolide A, FIG. 6B): 30 ng/mL
- median inhibitory concentration (IC50), which reduces IFN-induced responses by 50% ([1]; Vioprolide A two hours prior to IFN-β (500 U/ml), luciferase related to protein, FIG. 6A): 0.01 mg/L
- impact on IFN responses in vitro compared within the class of Vioprolides ([1]; cell culture systems, screening): highest impact on IFN responses in vitro
- effect on the type I IFN response ([1]; pre-treatment 2 h before IFN-β, all concentrations tested (5-100 ng/ml)): inhibitory effect
- effect on tdTomato reporter expression [2]: dose-dependent inhibitory effect
- response to type II IFN (Renilla luciferase activity) [3]: decreased response to type II IFN
- light emission after IFN treatment relative to combined IFN and Vioprolide stimulation ([4]; 3 h after IFN, average radiance, FIG. 8B): ten times higher
- luciferase activity by optical imaging versus animal given IFN-β alone ([4]; imaging 3 h after IFN, one mouse per stimulation): less luciferase activity
- effect on IFN-mediated antiviral activities [5]: inhibitory effect on IFN-mediated antiviral activities
- lethal dose [6]: 3 mg/kg
